Results taken from BindingDB's records for doi:10.1111/cbdd.12861 (Quaid-i-Azam University, 2017).
Each block holds one compound with its values, some of them ahead of it.

Assays:
5'-nucleotidase [1] = target: 5'-nucleotidase (Homo sapiens, UniProt P21589); assay: Ecto-5'-Nucleotidase Inhibition Assay; conditions: pH 7.4; 37 °C
Experimental: (§1) The enzymatic assay of both human and rat ecto-5'-nucleotidase were performed with slight modifications in the previously described method. […] Aliquots of 50 μL of each reaction mixture was transferred into CE mini vial and hydrodynamically injected into the capillary by using pressure of 0.5 psi for 5s. The electrosmatic separation of substrate and product peaks occurred by applying voltage of 15 kV. The concentration of product i.e. adenosine was estimated by calculating the area under its absorbance peak at 260 nm.

5'-nucleotidase [2] = target: T1, 5'-nucleotidase (Rattus norvegicus, UniProt P21588); assay: Ecto-5'-Nucleotidase Inhibition Assay; conditions: pH 7.4; 37 °C
T1 sequence (P21588 whole entry): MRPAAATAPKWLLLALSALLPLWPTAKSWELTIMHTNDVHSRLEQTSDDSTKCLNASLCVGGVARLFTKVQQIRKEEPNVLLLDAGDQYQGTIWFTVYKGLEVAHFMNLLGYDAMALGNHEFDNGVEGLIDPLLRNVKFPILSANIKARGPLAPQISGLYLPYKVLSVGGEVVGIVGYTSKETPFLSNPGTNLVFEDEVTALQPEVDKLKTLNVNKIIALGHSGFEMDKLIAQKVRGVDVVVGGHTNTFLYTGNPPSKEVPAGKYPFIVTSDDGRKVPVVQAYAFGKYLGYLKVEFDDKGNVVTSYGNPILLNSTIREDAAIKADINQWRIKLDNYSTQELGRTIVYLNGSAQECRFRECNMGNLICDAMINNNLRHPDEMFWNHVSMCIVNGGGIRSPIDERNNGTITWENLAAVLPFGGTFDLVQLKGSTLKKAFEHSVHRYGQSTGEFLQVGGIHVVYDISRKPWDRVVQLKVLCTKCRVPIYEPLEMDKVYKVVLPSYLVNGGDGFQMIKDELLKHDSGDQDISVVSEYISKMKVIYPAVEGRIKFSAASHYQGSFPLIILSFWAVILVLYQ
Experimental: as §1

[3] = target: T2, Alkaline phosphatase, tissue-nonspecific isozyme (Bos taurus, UniProt P09487); assay: Alkaline Phosphatase Inhibition Assay; conditions: pH 9.8; 37 °C
T2 sequence (P09487 whole entry): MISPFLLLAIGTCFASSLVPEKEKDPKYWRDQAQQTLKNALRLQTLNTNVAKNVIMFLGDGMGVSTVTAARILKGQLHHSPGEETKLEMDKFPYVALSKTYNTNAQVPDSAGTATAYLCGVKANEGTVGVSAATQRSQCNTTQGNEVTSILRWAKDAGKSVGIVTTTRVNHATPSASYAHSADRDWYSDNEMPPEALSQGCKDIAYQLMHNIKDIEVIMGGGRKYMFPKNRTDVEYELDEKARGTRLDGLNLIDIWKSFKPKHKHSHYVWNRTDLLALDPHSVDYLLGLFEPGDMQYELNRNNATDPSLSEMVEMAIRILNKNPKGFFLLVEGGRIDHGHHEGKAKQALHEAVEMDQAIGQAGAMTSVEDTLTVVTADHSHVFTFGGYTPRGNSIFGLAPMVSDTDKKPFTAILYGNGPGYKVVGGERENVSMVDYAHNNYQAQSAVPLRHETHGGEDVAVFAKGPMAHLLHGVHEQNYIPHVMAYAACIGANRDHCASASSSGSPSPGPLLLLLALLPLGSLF
Experimental: (§2) The assay conditions were optimized with some changes in formerly reported spectrophotometric method. The composition of assay buffer of pH 9.8 was as: […], 0.05 mM ZnCl2 and 2.5 mM MgCl2. All compounds were tested at the initial concentration of 0.2 mM. A total assay volume of 50 μL contained 10 μL of tested compound, followed by the addition of 20 μL of either b-TNAP (1:800 times diluted enzyme in assay buffer) or 20 μL of c-IAP (1:800 times diluted enzyme in same assay buffer). After incubating the reaction mixture for 3-5 minutes at 37 °C, pre-read was taken by measuring luminescence with the help of microplate reader (BioTek FLx800, Instruments, Inc. USA). After that, 20 μL of substrate (CDP-Star) at the concentration of (110 μM) was added to the reaction mixture. Then the reaction mixture was again incubated for 15-20 min at 37 °C and after read was taken to measure the change in the luminescence. Total activity control (without inhibitor or negative control) was used for comparison of the activity of each test compound. L-phenylalanine (at concentration of 4 mM per well) and Levamisole (at concentration of 2 mM per well) were used as reference standards against calf intestinal alkaline phosphatase (c-IAP) and bovine tissue-nonspecific alkaline phosphatase (b-TNAP) respectively.

[4] = target: Intestinal-type alkaline phosphatase (Bos taurus, UniProt P19111); assay: Alkaline Phosphatase Inhibition Assay; conditions: pH 9.8; 37 °C
Experimental: as §2

5'-nucleotidase (Homo sapiens, UniProt P21589), sequence (P21589 whole entry): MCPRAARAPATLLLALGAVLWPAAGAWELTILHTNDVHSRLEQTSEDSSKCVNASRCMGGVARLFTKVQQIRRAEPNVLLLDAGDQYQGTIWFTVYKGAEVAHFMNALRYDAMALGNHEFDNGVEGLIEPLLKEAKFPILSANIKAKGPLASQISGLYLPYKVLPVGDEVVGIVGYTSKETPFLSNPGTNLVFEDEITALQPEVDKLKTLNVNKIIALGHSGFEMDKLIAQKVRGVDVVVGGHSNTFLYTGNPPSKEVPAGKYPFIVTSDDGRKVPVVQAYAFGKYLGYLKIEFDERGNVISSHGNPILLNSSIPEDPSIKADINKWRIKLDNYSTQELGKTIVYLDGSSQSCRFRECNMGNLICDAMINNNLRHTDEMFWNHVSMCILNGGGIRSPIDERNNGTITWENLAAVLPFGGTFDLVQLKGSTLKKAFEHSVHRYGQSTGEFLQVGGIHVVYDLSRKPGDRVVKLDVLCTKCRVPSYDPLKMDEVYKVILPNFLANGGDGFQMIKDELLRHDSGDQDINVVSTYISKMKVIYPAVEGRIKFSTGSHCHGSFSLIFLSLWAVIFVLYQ
Intestinal-type alkaline phosphatase, sequence (P19111 whole entry): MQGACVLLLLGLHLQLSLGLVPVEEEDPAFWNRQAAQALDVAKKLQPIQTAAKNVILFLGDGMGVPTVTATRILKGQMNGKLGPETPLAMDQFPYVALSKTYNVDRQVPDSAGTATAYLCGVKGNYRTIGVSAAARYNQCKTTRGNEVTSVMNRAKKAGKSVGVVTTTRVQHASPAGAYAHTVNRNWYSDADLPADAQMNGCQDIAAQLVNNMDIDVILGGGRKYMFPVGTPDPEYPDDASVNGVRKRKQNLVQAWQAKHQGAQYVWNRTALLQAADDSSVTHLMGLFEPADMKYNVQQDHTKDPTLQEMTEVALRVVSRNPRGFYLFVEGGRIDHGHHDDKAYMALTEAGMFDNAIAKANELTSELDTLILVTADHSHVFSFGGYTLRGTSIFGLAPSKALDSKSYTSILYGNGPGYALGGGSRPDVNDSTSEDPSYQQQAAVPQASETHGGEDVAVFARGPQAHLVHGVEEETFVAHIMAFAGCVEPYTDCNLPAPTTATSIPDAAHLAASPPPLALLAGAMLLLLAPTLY

Structure (SMILES): O=C(N/N=C/c1cccnc1)c1ccncc1 [(E)-N'-(Pyridin-3'-ylmethylene)isonicotinohydrazide (3i)]
IC50 (5'-nucleotidase [1]): 210 nM | IC50 (5'-nucleotidase [2]): 3010 nM | IC50 [3]: 2430 nM | IC50 [4]: 1460 nM

Structure (SMILES): O=C(N/N=C/c1ccc(Br)cc1)c1ccncc1 [(E)-N'-(4'-Bromobenzylidene)isonicotinohydrazide (3b)]
IC50 (5'-nucleotidase [1]): 230 nM | IC50 (5'-nucleotidase [2]): 7130 nM | IC50 [3]: 4130 nM | IC50 [4]: 9720 nM

Structure (SMILES): O=C(N/N=C/c1ccncc1)c1ccncc1 [(E)-N'-(Pyridin-4'-ylmethylene)isonicotinohydrazide (3h)]
IC50 (5'-nucleotidase [1]): 2120 nM | IC50 (5'-nucleotidase [2]): 2890 nM | IC50 [4]: 2460 nM

Structure (SMILES): O=C(N/N=C/c1ccc(Cl)cc1)c1ccncc1 [(E)-N'-(4'-Chlorobenzylidene)isonicotinohydrazide (3a)]
IC50 (5'-nucleotidase [1]): 1670 nM | IC50 (5'-nucleotidase [2]): 1080 nM | IC50 [4]: 670 nM

Structure (SMILES): O=C(N/N=C/c1ccc(F)cc1)c1ccncc1 [(E)-N'-(4'-Fluorobenzylidene)isonicotinohydrazide (3c)]
IC50 (5'-nucleotidase [1]): 6760 nM | IC50 (5'-nucleotidase [2]): 440 nM | IC50 [3]: 2260 nM | IC50 [4]: 17500 nM

Structure (SMILES): C/C(=N\NC(=O)c1ccncc1)N1N=C(c2ccc(F)cc2)CC1c1ccccc1 (stereo not given) [(E)-N'-(1-(3-(4-fluorophenyl)-5-phenyl-4,5-dihydro-1H-pyrazol-1yl)ethylidene)isonicotino hydrazide (3j)]
IC50 (5'-nucleotidase [1]): 190 nM | IC50 (5'-nucleotidase [2]): 360 nM | IC50 [3]: 1060 nM | IC50 [4]: 3980 nM

IC50 [3]: 350 nM | IC50 [4]: 1920 nM
Structure (SMILES): COc1cc(/C=N/NC(=O)c2ccncc2)ccc1O [(E)-N'-(4'-Hydroxy-3-methoxybenzylidene)isonicotinohydrazide (3g)]

Structure (SMILES): O=C(N/N=C/c1cccc([N+](=O)[O-])c1)c1ccncc1 [(E)-N'-(3'-Nitrobenzylidene)isonicotinohydrazide (3f)]
IC50 (5'-nucleotidase [1]): 1900 nM | IC50 (5'-nucleotidase [2]): 210 nM | IC50 [3]: 1820 nM | IC50 [4]: 7340 nM

Structure (SMILES): O=C(N/N=C/c1ccccc1O)c1ccncc1 [(E)-N'-(2'-hydroxybenzylidene)isonicotinohydrazide (3e)]
IC50 (5'-nucleotidase [1]): 1340 nM | IC50 (5'-nucleotidase [2]): 450 nM | IC50 [4]: 1440 nM

Structure (SMILES): COc1ccc(/C=N/NC(=O)c2ccncc2)cc1 [(E)-N'-(4'-Methoxybenzylidene)isonicotinohydrazide (3d)]
IC50 (5'-nucleotidase [1]): 13800 nM | IC50 (5'-nucleotidase [2]): 310 nM | IC50 [3]: 560 nM | IC50 [4]: 1740 nM
